What is called IC50 is the point on the concentration scale where inhibition reaches its midpoint.

Here are results for 24 molecules from US8933224B2, “Triazine derivatives” (Pfizer Inc., priority 2013, dated 2015).

SMILES strings stand for the structures.

Assay [1] has as its target human recombinant PDE10 enzyme (PDE10A) (Homo sapiens, UniProt Q9Y233). Put plainly: PDE10 scintillation proximity assay (SPA), inhibition of human recombinant PDE10 enzyme activity. In kind it is biochemical. The following applies: geometric mean of 2-4 determinations unless otherwise indicated (b: ≧5 determinations; c: single determination). The protocol: PDE10 activity was measured using a scintillation assay (SPA-based method) similar to that previously described by Seeger, T. F. et al., Brain Research 985 (2003) 113-126. The compounds' relative activity as PDE10 inhibitors was investigated by assaying a fixed amount of enzyme in the presence of the test compound and low substrate concentration (cAMP) such that an IC50 could be determined. […] The assay is performed in a 384-well format with 50 μL assay buffer (50 mM TRIS pH 7.5; 1.3 mM MgCl2; 0.01% Brij) containing enough PDE10 to convert ˜20% of 20 nM ^3H-cAMP, and a range of inhibitors. Reactions are incubated for 30 minutes at 25° C. The addition of 20 μL of 8 mg/ml yttrium silicate SPA beads (PerkinElmer) stops the reaction. The plates are sealed (TopSeal, PerkinElmer) and the beads are allowed to settle for 8 hrs, after which they are read on the Trilux Microbeta overnight. ^1Rat enzyme preparation:^2Human enzyme preparation:
Human PDE10A coding sequence (amino acids 21 to 797 from the sequence with accession number NP_001124162.1) was synthesized using codon optimization for insect expression and cloned into the baculovirus expression vector pFastBac (Invitrogen) engineered to include a N-terminal His6 affinity tag to aid in purification as described in Seeger, T. F. et al., Brain Research 985 (2003) 113-126. The recombinant Bacmid was isolated and used to transfect sf9 insect cells to generate a viral stock. To generate cell paste for purification, sf21 cells were infected with the virus stock and cells were harvested 72 hours after infection as described in Seeger, T. F. et al., Brain Research 985 (2003) 113-126. Insect cell paste was lysed and after centrifugation, the supernatant was chromatographed on Ni-NTA agarose (Qiagen) as described in Seeger, T. F. et al., Brain Research 985 (2003) 113-126. Ni-NTA agarose eluting fractions containing PDE10A were chromatographed on Superdex 200 (GE Healthcare Life Sciences) in 50 mM Tris HCl pH 7.5, 150 mM NaCl, 1 mM EDTA, 10% glycerol, 2 mM TCEP, 1.5 mM benzamidine, EDTA-free protease inhibitors (Roche), and 5 μM E-64.
Background: In a scintillation proximity assay essentially only radioactivity close to the scintillant gives light.

The next assay concerns the target rat PDE10 enzyme (Rattus norvegicus (Rat), UniProt Q9QYJ6). Put plainly: PDE10 scintillation proximity assay (SPA), inhibition of rat PDE10 enzyme activity. In kind it is biochemical. The following applies: geometric mean of 2-4 determinations unless otherwise indicated (b: ≧5 determinations; c: single determination). In outline: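 SPA with fixed recombinant PDE10 (Sf21-expressed, Ni-NTA and Mono Q purified) converting ~20% of 20 nM ³H-cAMP in 50 mM TRIS pH 7.5, 1.3 mM MgCl2, 0.01% Brij, across an inhibitor range.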

Sequence of rat PDE10 enzyme (Q9QYJ6 24-794): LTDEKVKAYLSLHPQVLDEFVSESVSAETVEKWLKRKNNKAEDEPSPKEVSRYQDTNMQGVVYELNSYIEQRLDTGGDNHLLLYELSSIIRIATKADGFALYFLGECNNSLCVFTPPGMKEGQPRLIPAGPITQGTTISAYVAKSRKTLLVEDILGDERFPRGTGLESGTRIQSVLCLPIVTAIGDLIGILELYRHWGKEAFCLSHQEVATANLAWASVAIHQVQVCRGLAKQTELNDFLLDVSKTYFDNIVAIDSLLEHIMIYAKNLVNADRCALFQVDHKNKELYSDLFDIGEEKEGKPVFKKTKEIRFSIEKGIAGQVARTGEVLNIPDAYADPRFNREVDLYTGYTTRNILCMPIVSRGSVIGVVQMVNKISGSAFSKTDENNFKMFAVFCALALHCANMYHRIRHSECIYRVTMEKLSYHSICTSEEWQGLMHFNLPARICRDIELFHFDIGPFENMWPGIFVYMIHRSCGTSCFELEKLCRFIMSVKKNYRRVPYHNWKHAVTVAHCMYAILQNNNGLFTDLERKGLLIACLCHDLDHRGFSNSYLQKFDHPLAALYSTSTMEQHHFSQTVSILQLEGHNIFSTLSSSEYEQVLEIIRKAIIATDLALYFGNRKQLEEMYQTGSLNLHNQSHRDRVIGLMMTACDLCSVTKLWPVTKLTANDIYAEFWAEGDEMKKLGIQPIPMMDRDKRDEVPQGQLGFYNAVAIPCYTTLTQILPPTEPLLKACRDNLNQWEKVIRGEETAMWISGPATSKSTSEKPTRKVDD

On to `Cc1nc([C@@H]2CCOC2)c2c(N3CCc4cnn(C5CC5)c4C3)ncnn12` [Example 5, 4-(1-Cyclopropyl-1,4,5,7-tetrahydro-6H-pyrazolo[3,4-c]pyridin-6-yl)-7-methyl-5-[(3S)-tetrahydrofuran-3-yl]imidazo[5,1-f][1,2,4]triazine], for which the half-inhibitory concentration (IC50) in assay [1] is 0.427 nM; against rat PDE10 enzyme, 0.299 nM.
For `COc1ccc2c(n1)CCN(c1ncnn3c(C)nc([C@@H]4CCOC4)c13)C2` [Example 27, 2-methoxy-6-{7-methyl-5-[(3S)-tetrahydrofuran-3-yl]imidazo[5,1-f][1,2,4]triazin-4-yl}-5,6,7,8-tetrahydro-1,6-naphthyridine] the same measures were 0.891 nM and 0.617 nM.
Take `Cc1nc([C@H]2CCOC2)c2c(N3CCc4ncccc4C3)ncnn12` [Example 96, 6-{7-methyl-5-[(3R)-tetrahydrofuran-3-yl]imidazo[5,1-f][1,2,4]triazin-4-yl}-5,6,7,8-tetrahydro-1,6-naphthyridine]: the IC50 is 4.8 nM in assay [1] and 5.2 nM on rat PDE10 enzyme.
For `Cc1nc([C@@H]2CCOC2)c2c(N3CCc4cnn(CC(F)(F)F)c4C3)ncnn12` [Example 170, 7-methyl-5-[(3S)-tetrahydrofuran-3-yl]-4-[1-(2,2,2-trifluoroethyl)-1,4,5,7-tetrahydro-6H-pyrazolo[3,4-c]pyridin-6-yl]imidazo[5,1-f][1,2,4]triazine] the same measures were 2.55 nM and 1.94 nM.
As to `Cc1nc([C@@H]2CCOC2)c2c(N3CCc4cnn(C)c4C3)ncnn12` [Example 8, 7-Methyl-4-(1-methyl-1,4,5,7-tetrahydro-6H-pyrazolo[3,4-c]pyridin-6-yl)-5-[(3S)-tetrahydrofuran-3-yl]imidazo[5,1-f][1,2,4]triazine], the IC50 in assay [1] was found to be 3.41 nM; at rat PDE10 enzyme it was 2.36 nM.
For `Cc1nc([C@@H]2CCOC2)c2c(N3CCc4ncccc4C3)ncnn12` [Example 47, 6-{7-methyl-5-[(3S)-tetrahydrofuran-3-yl]imidazo[5,1-f][1,2,4]triazin-4-yl}-5,6,7,8-tetrahydro-1,6-naphthyridine] the same measures were 1.42 nM and 0.758 nM.
In the case of `Cc1nc(-c2ccccc2F)c2c(N3CCc4ccc(C(F)(F)F)nc4C3)ncnn12` [Example 159, 7-[5-(2-fluorophenyl)-7-methylimidazo[5,1-f][1,2,4]triazin-4-yl]-2-(trifluoromethyl)-5,6,7,8-tetrahydro-1,7-naphthyridine], the 50% inhibitory concentration (IC50) in assay [1] came out at 21.2 nM; at rat PDE10 enzyme, 9.7 nM.
For `Cc1nc([C@@H]2CCOC2)c2c(N3Cc4c(cnn4C)[C@H](C)C3)ncnn12` (single isomer, unassigned) [Example 20] the same measures were 2.51 nM and 1.72 nM.
For `Cc1nc(-c2ccccc2F)c2c(N3CCc4cnn(C(C)C)c4C3)ncnn12` [Example 92, 5-(2-fluorophenyl)-7-methyl-4-[1-(propan-2-yl)-1,4,5,7-tetrahydro-6H-pyrazolo[3,4-c]pyridin-6-yl]imidazo[5,1-f][1,2,4]triazine], in that order: 0.664 nM and 0.997 nM.
For `Cc1ncc2c(n1)CCN(c1ncnn3c(C)nc(-c4ccccc4F)c13)C2` [Example 111, 6-[5-(2-fluorophenyl)-7-methylimidazo[5,1-f][1,2,4]triazin-4-yl]-2-methyl-5,6,7,8-tetrahydropyrido[4,3-d]pyrimidine] the same measures were 18.6 nM and 6.85 nM.
As for `Cc1nc(C)c2c(n1)CCN(c1ncnn3c(C)nc([C@@H]4CCOC4)c13)C2` [Example 38, 2,4-dimethyl-6-{7-methyl-5-[(3S)-tetrahydrofuran-3-yl]imidazo[5,1-f][1,2,4]triazin-4-yl}-5,6,7,8-tetrahydropyrido[4,3-d]pyrimidine], the IC50 in assay [1] amounted to 2.92 nM; against rat PDE10 enzyme, 1.78 nM.
For `Cc1nc([C@@H]2CCOC2)c2c(N3CCc4c(c(C(C)C)nn4C)C3)ncnn12` [Example 86, 7-methyl-4-[1-methyl-3-(propan-2-yl)-1,4,6,7-tetrahydro-5H-pyrazolo[4,3-c]pyridin-5-yl]-5-[(3S)-tetrahydrofuran-3-yl]imidazo[5,1-f][1,2,4]triazine] the same measures were 0.0444 nM and 0.132 nM.
For `Cc1nc([C@@H]2CCOC2)c2c(N3CCc4noc(C5CC5)c4C3)ncnn12` [Example 6, 4-(3-Cyclopropyl-6,7-dihydro[1,2]oxazolo[4,3-c]pyridin-5(4H)-yl)-7-methyl-5-[(3S)-tetrahydrofuran-3-yl]imidazo[5,1-f][1,2,4]triazine], in that order: 0.406 nM and 0.364 nM.
For `Cc1cc2c(cn1)CN(c1ncnn3c(C)nc(-c4ccccc4F)c13)CC2` [Example 164, 2-[5-(2-fluorophenyl)-7-methylimidazo[5,1-f][1,2,4]triazin-4-yl]-6-methyl-1,2,3,4-tetrahydro-2,7-naphthyridine] the same measures were 5.92 nM and 3.32 nM.
Consider `Cc1nc2c(c(C(F)(F)F)n1)CN(c1ncnn3c(C)nc([C@@H]4CCOC4)c13)CC2` [Example 88, 2-methyl-6-{7-methyl-5-[(3S)-tetrahydrofuran-3-yl]imidazo[5,1-f][1,2,4]triazin-4-yl}-4-(trifluoromethyl)-5,6,7,8-tetrahydropyrido[4,3-d]pyrimidine], for which the figures for the IC50 (in assay [1]; against rat PDE10 enzyme) were 3.64 nM and 1.56 nM, respectively.
For `Cc1nc(-c2ccccc2F)c2c(N3CCc4cc(C5CC5)ncc4C3)ncnn12` [Example 162, 6-cyclopropyl-2-[5-(2-fluorophenyl)-7-methylimidazo[5,1-f][1,2,4]triazin-4-yl]-1,2,3,4-tetrahydro-2,7-naphthyridine] the same measures were 5.21 nM and 2.16 nM.
For `Cc1nc([C@@H]2CCOC2)c2c(N3CCc4cc(C5CC5)ncc4C3)ncnn12` [Example 161, 6-cyclopropyl-2-{7-methyl-5-[(3S)-tetrahydrofuran-3-yl]imidazo[5,1-f][1,2,4]triazin-4-yl}-1,2,3,4-tetrahydro-2,7-naphthyridine], in that order: 0.468 nM and 0.163 nM.
For `Cc1ncc2c(n1)CCN(c1ncnn3c(C)nc([C@@H]4CCOC4)c13)C2` [Example 134, 2-methyl-6-{7-methyl-5-[(3S)-tetrahydrofuran-3-yl]imidazo[5,1-f][1,2,4]triazin-4-yl}-5,6,7,8-tetrahydropyrido[4,3-d]pyrimidine] the same measures were 4.51 nM and 2.44 nM.
For the molecule `Cc1nc(C)c2c(n1)CCN(c1ncnn3c(C)nc(-c4ccccc4F)c13)C2` [Example 130, 6-[5-(2-fluorophenyl)-7-methylimidazo[5,1-f][1,2,4]triazin-4-yl]-2,4-dimethyl-5,6,7,8-tetrahydropyrido[4,3-d]pyrimidine], the concentration for half-maximal inhibition (IC50) in assay [1] came out at 2.34 nM; against rat PDE10 enzyme it was 1.65 nM.
For the molecule `Cc1nc([C@@H]2CCOC2)c2c(N3CCc4c(c(C5CC5)nn4C)C3)ncnn12` [Example 12, 4-(3-Cyclopropyl-1-methyl-1,4,6,7-tetrahydro-5H-pyrazolo[4,3-c]pyridin-5-yl)-7-methyl-5-[(3S)-tetrahydrofuran-3-yl]imidazo[5,1-f][1,2,4]triazine], the IC50 in assay [1] was 0.257 nM; at rat PDE10 enzyme it was 0.194 nM.
For `Cc1ccc2c(n1)CN(c1ncnn3c(C)nc([C@@H]4CCOC4)c13)CC2` [Example 72, 2-methyl-7-{7-methyl-5-[(3S)-tetrahydrofuran-3-yl]imidazo[5,1-f][1,2,4]triazin-4-yl}-5,6,7,8-tetrahydro-1,7-naphthyridine] the same measures were 0.539 nM and 0.255 nM.
For `COc1nccc2c1CN(c1ncnn3c(C)nc([C@@H]4CCOC4)c13)CC2` [Example 28, 8-methoxy-2-{7-methyl-5-[(3S)-tetrahydrofuran-3-yl]imidazo[5,1-f][1,2,4]triazin-4-yl}-1,2,3,4-tetrahydro-2,7-naphthyridine], in that order: 0.582 nM and 0.236 nM.
On to `Cc1nc(-c2ccccc2F)c2c(N3CCc4nc(C5CC5)n(C)c(=O)c4C3)ncnn12` [Example 142, 2-cyclopropyl-6-[5-(2-fluorophenyl)-7-methylimidazo[5,1-f][1,2,4]triazin-4-yl]-3-methyl-5,6,7,8-tetrahydropyrido[4,3-d]pyrimidin-4(3H)-one], for which the half-inhibitory concentration (IC50) in assay [1] was found to be 1.31 nM.
On the same count and under the same terms, the value for `Cc1nc([C@H]2CCCO2)c2c(N3CCc4cnn(C)c4C3)ncnn12` (single isomer, unassigned) [Example 13] was 7.59 nM.
